Reference: US9974778B2, “Substituted pyridinones as MGAT2 inhibitors” (BRISTOL-MYERS SQUIBB COMPANY, priority 2014, dated 2018)

These molecules were tested against T1, Human MGAT-2 (Homo sapiens, UniProt Q3SYC2) (assay: MGAT LCMS Assay). Settings: not given.
T1 construct: made in house; host or cells: Sf9 cells (membrane preparation)
Assay type: biochemical
Experimental: Assay plates were run through a fully automated robotics system and shaken for 5 seconds every minute for a total 10 minutes. The reactions were then quenched with 120 μL of ice cold methanol containing 1 μg/mL 1,2-distearoyl-rac-glycerol as the internal standard. Plates were shaken for 2 minutes and spun down to remove protein precipitation. After the spin, samples were transferred to LC/MS compatible PCR plates. For LC/MS analysis, a ThermoFisher Surveyor pump, utilizing a Waters […]® C8, 50×2.1 mm column, was used for the chromatography of enzyme products. The buffer system consists of 0.1% formic acid in water with a mobile phase consisting 0.1% formic acid in methanol. […] The first 0.5 minutes of each injection was diverted to waste to eliminate the presence of Phosphate buffer in the enzymatic reaction. The column was run at 0.6 mL/min and a temperature of 65° C. Mass spectrometry analysis of the samples was performed on a ThermoFisher Quantum Triple quad utilizing APCI (+) as the mode of ionization. […] The ratio of Diolein to internal standard (Peak Area Ratio) is utilized to calculate IC50 values.

T1 sequence (Q3SYC2 whole entry): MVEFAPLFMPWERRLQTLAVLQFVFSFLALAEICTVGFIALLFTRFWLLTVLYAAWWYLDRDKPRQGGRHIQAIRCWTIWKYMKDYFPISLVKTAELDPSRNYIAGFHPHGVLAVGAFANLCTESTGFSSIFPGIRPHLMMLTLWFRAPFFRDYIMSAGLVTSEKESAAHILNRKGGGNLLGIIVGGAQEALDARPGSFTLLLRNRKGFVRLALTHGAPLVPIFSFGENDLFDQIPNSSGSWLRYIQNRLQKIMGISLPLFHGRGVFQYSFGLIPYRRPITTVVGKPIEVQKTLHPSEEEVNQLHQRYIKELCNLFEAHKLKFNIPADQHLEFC

Row | Molecule | IC50
1 | CCc1ccc(-c2cc(-c3ccc(OCCCCCC(F)(F)F)cc3C(F)(F)F)[nH]c(=O)c2-c2nn[nH]n2)s1 [Example 151, 4-(5-Ethylthiophen-2-yl)-3-(2H-tetrazol-5-yl)-6-(4-((6,6,6-trifluorohexyl)oxy)-2-(trifluoromethyl)phenyl)pyridin-2(1H)-one] | 0.3 nM

Same assay, conditions: human MGAT2 membranes expressed in Sf9 cells; 100 μM 2-oleoylglycerol, 15 μM oleoyl-coenzyme A; read-out: h-MGAT LCMS IC50

Row | Molecule | IC50
2 | COc1ccc(NC(=O)c2c(-c3ccc(C(C)(C)C)cc3)cc(-c3ccc(OCCCC(F)(F)F)cc3)[nH]c2=O)cc1 [Example 51, 4-(4-(tert-Butyl)phenyl)-N-(4-methoxyphenyl)-2-oxo-6-(4-(4,4,4-trifluorobutoxy)phenyl)-1,2-dihydropyridine-3-carboxamide] | 417 nM
3 | CCc1cnc(-c2cc(-c3ccc(OCCCCCC(F)(F)F)cc3F)[nH]c(=O)c2-c2nnn[nH]2)s1 [Example 148, 4-(5-Ethylthiazol-2-yl)-6-(2-fluoro-4-((6,6,6-trifluorohexyl)oxy)phenyl)-3-(1H-tetrazol-5-yl)pyridin-2(1H)-one] | 0.8 nM
4 | Cc1ccc(-c2c(Cl)c(-c3ccc(OCCCC(F)(F)F)cc3)[nH]c(=O)c2-c2nnn[nH]2)cc1 [Example 19, 5-Chloro-3-(1H-tetrazol-5-yl)-4-(p-tolyl)-6-(4-(4,4,4-trifluorobutoxy)phenyl)pyridin-2(1H)-one] | 100 nM
5 | Cc1ccc(-c2c(Br)c(-c3ccc(OCCCC(F)(F)F)cc3)[nH]c(=O)c2-c2nn[nH]n2)cc1C [Example 36, 5-Bromo-4-(3,4-dimethylphenyl)-3-(2H-tetrazol-5-yl)-6-(4-(4,4,4-trifluorobutoxy)phenyl)pyridin-2(1H)-one] | 311 nM
6 | 5-Chloro-6-cyclohexyl-N-(4-methoxyphenyl)-2-oxo-4-(p- tolyl)-1,2-dihydropyridine-3-carboxamide [Example 35] | 288 nM
7 | CC(C)(C)c1ccc(-c2cc(-c3ccc(OCCCC(F)(F)F)cc3)[nH]c(=O)c2C(=O)Nc2ccccc2)cc1 [Example 44, 4-(4-(tert-Butyl)phenyl)-2-oxo-N-phenyl-6-(4-(4,4,4-trifluorobutoxy)phenyl)-1,2-dihydropyridine-3-carboxamide] | 6 nM
8 | CCOc1ccc(NC(=O)c2c(-c3ccc(C)cc3)cc(-c3ccc(OCCCC(F)(F)F)cc3F)[nH]c2=O)cc1 [Example 114, N-(4-Ethoxyphenyl)-6-(2-fluoro-4-(4,4,4-trifluorobutoxy)phenyl)-2-oxo-4-(p-tolyl)-1,2-dihydropyridine-3-carboxamide] | 14 nM
9 | O=c1[nH]c(-c2ccc(OCCCCCC(F)(F)F)cc2)cc(-c2nn(CC3CC3)cc2Cl)c1-n1nn[nH]c1=O [Example 158, 4-[4-Chloro-1-(cyclopropylmethyl)-1H-pyrazol-3-yl]-3-(5-oxo-4,5-dihydro-1H-1,2,3,4-tetrazol-1-yl)-6-{4-[(6,6,6-trifluorohexyl)oxy]phenyl}-1,2-dihydropyridin-2-one] | 6 nM
10 | O=c1[nH]c(-c2ccc(OCCCC(F)(F)F)cc2F)cc(-c2ncc(C3CC3)s2)c1-c1nnn[nH]1 [Example 125, 4-(5-Cyclopropylthiazol-2-yl)-6-(2-fluoro-4-(4,4,4-trifluorobutoxy)phenyl)-3-(1H-tetrazol-5-yl)pyridin-2(1H)-one] | 2 nM
11 | CS(=O)(=O)NC(=O)c1c(-c2ccn(CC3CC3)n2)c(F)c(-c2ccc(OCCCC(F)(F)F)cc2)[nH]c1=O [Example 109, 4-(1-(Cyclopropylmethyl)-1H-pyrazol-3-yl)-5-fluoro-N-(methylsulfonyl)-2-oxo-6-(4-(4,4,4-trifluorobutoxy)phenyl)-1,2-dihydropyridine-3-carboxamide] | 130 nM
12 | Cc1ccc(-c2c(Br)c(-c3ccc(OCCCC(F)(F)F)cc3)[nH]c(=O)c2-c2nnn[nH]2)cc1 [Example 6, 5-Bromo-3-(1H-tetrazol-5-yl)-4-(p-tolyl)-6-(4-(4,4,4-trifluorobutoxy)phenyl)pyridin-2(1H)-one] | 79 nM
13 | Cc1ccc(-c2c(F)c(-c3ccc(OCCCC(F)(F)F)cc3)[nH]c(=O)c2-c2nnn[nH]2)cc1 [Example 17, 5-Fluoro-3-(1H-tetrazol-5-yl)-4-(p-tolyl)-6-(4-(4,4,4-trifluorobutoxy)phenyl)pyridin-2(1H)-one] | 298 nM
14 | O=c1[nH]c(-c2ccc(OCCCCCC(F)(F)F)cc2)cc(-c2ccc(OC(F)F)cc2)c1-n1nn[nH]c1=O [Example 162, 4-[4-(Difluoromethoxy)phenyl]-3-(5-oxo-4,5-dihydro-1H-1,2,3,4-tetrazol-1-yl)-6-{4-[(6,6,6-trifluorohexyl)oxy]phenyl}-1,2-dihydropyridin-2-one] | 1970 nM
15 | CCc1cnc(-c2cc(-c3ccc(OCCCC(F)(F)F)cc3F)[nH]c(=O)c2-c2nnn[nH]2)s1 [Example 133, 4-(5-Ethylthiazol-2-yl)-6-(2-fluoro-4-(4,4,4-trifluorobutoxy)phenyl)-3-(1H-tetrazol-5-yl)pyridin-2(1H)-one] | 2 nM
16 | CCc1ccc(-c2cc(-c3ccc(C4=CCC(C(C)(C)C)CC4)cc3)[nH]c(=O)c2-c2nn[nH]n2)s1 (stereo not shown) [Example 163, 6-[4-(4-tert-Butylcyclohex-1-en-1-yl)phenyl]-4-(5-ethylthiophen-2-yl)-3-(2H-1,2,3,4-tetrazol-5-yl)-1,2-dihydropyridin-2-one] | 69 nM
17 | CS(=O)(=O)NC(=O)c1c(-c2ccn(CC3CC3)n2)cc(-c2ccc(OCCCC(F)(F)F)cc2)[nH]c1=O [Example 98, 4-(1-(Cyclopropylmethyl)-1H-pyrazol-3-yl)-N-(methylsulfonyl)-2-oxo-6-(4-(4,4,4-trifluorobutoxy)phenyl)-1,2-dihydropyridine-3-carboxamide] | 332 nM
18 | CCc1ccc(-c2c(Cl)c(-c3ccc(OCCCC(F)(F)F)cc3)[nH]c(=O)c2-c2nnn[nH]2)s1 [Example 128, 5-Chloro-4-(5-ethylthiophen-2-yl)-3-(1H-tetrazol-5-yl)-6-(4-(4,4,4-trifluorobutoxy)phenyl)pyridin-2(1H)-one] | 83 nM
19 | Cc1ccc(-c2cc(-c3ccc(Cc4ccccc4)cc3)[nH]c(=O)c2-c2nn[nH]n2)cc1 [Example 81, 6-(4-Benzylphenyl)-3-(2H-tetrazol-5-yl)-4-(p-tolyl)pyridin-2(1H)-one] | 256 nM

Next, values leading:

Row | IC50 | Molecule
20 | 52 nM | CCc1cnc(-c2cc(-c3ccc(CCC4CC4)cc3)[nH]c(=O)c2-c2nn[nH]n2)s1 [Example 149, 6-(4-(2-Cyclopropylethyl)phenyl)-4-(5-ethylthiazol-2-yl)-3-(2H-tetrazol-5-yl)pyridin-2(1H)-one]
21 | 39 nM | CCCC1CCC(c2ccc(-c3cc(-c4ccc(CC)s4)c(-c4nn[nH]n4)c(=O)[nH]3)cc2)CC1 (stereo not shown) [Example 167, 4-(5-Ethylthiophen-2-yl)-6-[4-(4-propylcyclohexyl)phenyl]-3-(2H-1,2,3,4-tetrazol-5-yl)-1,2-dihydropyridin-2-one]
22 | 355 nM | O=C(Nc1ccc(OC(F)(F)F)cc1)c1c(-c2cnn(C3CC3)c2)cc(C2CCCCC2)[nH]c1=O [Example 94]
23 | 9 nM | O=c1[nH]c(-c2ccc(OCCCCCC(F)(F)F)cc2F)cc(-c2nn(CC3CC3)cc2Cl)c1-n1nn[nH]c1=O [Example 169, 4-[4-Chloro-1-(cyclopropylmethyl)-1H-pyrazol-3-yl]-6-{2-fluoro-4-[(6,6,6-trifluorohexyl)oxy]phenyl}-3-(5-oxo-4,5-dihydro-1H-1,2,3,4-tetrazol-1-yl)-1,2-dihydropyridin-2-one]
24 | 2 nM | CCc1ccc(-c2cc(-c3ccc(OCCCCCC(F)(F)F)cc3C(F)(F)F)[nH]c(=O)c2C(=O)NS(=O)(=O)C2CC2)s1 [Example 154, N-(Cyclopropanesulfonyl)-4-(5-ethylthiophen-2-yl)-2-oxo-6-{4-[(6,6,6-trifluorohexyl)oxy]-2-(trifluoromethyl)phenyl}-1,2-dihydropyridine-3-carboxamide]
25 | 188 nM | Cc1ccc(-c2cc(-c3ncc(CCCCCCC(F)(F)F)s3)[nH]c(=O)c2-c2nnn[nH]2)cc1 [Example 62, 3-(1H-Tetrazol-5-yl)-4-(p-tolyl)-6-(5-(7,7,7-trifluoroheptyl)thiazol-2-yl)pyridin-2(1H)-one]
26 | 14 nM | O=c1[nH]c(-c2ccc(OCCCCCC(F)(F)F)cc2)cc(-c2ccc(OC(F)F)cc2)c1-c1nnn[nH]1 [Example 108, 4-(4-(Difluoromethoxy)phenyl)-3-(1H-tetrazol-5-yl)-6-(4-((6,6-trifluorohexyl)oxy)phenyl)pyridin-2(1H)-one]
27 | 11 nM | CCc1ccc(-c2cc(-c3ccc(OCCCC(F)(F)F)cc3)[nH]c(=O)c2C(=O)NS(=O)(=O)C2CC2)s1 [Example 121]
28 | 50 nM | CCOc1ccc(NC(=O)c2c(-c3cnc(N(C)C)s3)cc(C3CCCCC3)[nH]c2=O)cc1 [Example 8, 6-Cyclohexyl-4-(2-(dimethylamino)thiazol-5-yl)-N-(4-ethoxyphenyl)-2-oxo-1,2-dihydropyridine-3-carboxamide]
29 | 127 nM | CCOc1ccc(NC(=O)c2c(-c3ccc(C)cc3)cc(C3(F)CCCC3)[nH]c2=O)cc1 [Example 54, N-(4-Ethoxyphenyl)-6-(1-fluorocyclopentyl)-2-oxo-4-(p-tolyl)-1,2-dihydropyridinc-3-carboxamide]
30 | 15 nM | CS(=O)(=O)NC(=O)c1c(-c2ccc(OC(F)F)cc2)cc(-c2ccc(OCCCCCC(F)(F)F)cc2)[nH]c1=O [Example 71]
31 | 84 nM | O=c1[nH]c(-c2ccc(OCCCCCC(F)(F)F)cc2F)cc(-c2ccn(C3CC3)n2)c1-c1nn[nH]n1 [Example 104, 4-(1-Cyclopropyl-1H-pyrazol-3-yl)-6-(2-fluoro-4-((6,6,6-trifluorohexyl)oxy)phenyl)-3-(2H-tetrazol-5-yl)pyridin-2(1H)-one]
